# Source: patent US11186564B2, “Dual NAV1.2/5HT2a inhibitors for treating CNS disorders” (Sunovion Pharmaceuticals Inc., priority 2016, dated 2021)
# Molecular target: T1, recombinant human serotonin receptor 5-HT2A (Homo sapiens, UniProt P28223)
# T1 construct: expressed in transfected cells; method B: loaded with Ca2+ dye
# Test: 5-HT2A antagonist Ca2+ assay in CHO-K1 cells (method A aequorin luminescence / method B FLIPR fluorescence)
# Assay type: cell-based
# Conditions: 5HT2A IC50, μM, antagonist mode vs EC80 of reference agonist, method A or B
# From the text: The methods utilized to assess the inhibitory activity of compounds on recombinant human serotonin receptor 5-HT2A was based upon previously published approaches [Jerman J C, Brough S J, Gager T, Wood M, Coldwell M C, Smart D, Middlemiss D N. Pharmacological characterisation of human 5-HT2 receptor subtypes. European Journal of Pharmacology 2001 Feb. 23; 414(1):23-30; Le Poul E, Hisada S, Mizuguchi Y, Dupriez V J, Burgeon E, Detheux M. Adaptation of aequorin functional assay to high throughput screening. J Biomolecular Screening 2002 February; 7(1):57-65.] The 5-HT2A receptor signals through Gq-phospholipase signaling cascade, which leads to a transient increase in free intracellular […] concentration. Both 5-HT2A assay methods rely upon monitoring these changes in Ca^2+ concentration.
# In method A [Le Poul E, Hisada S, Mizuguchi Y, Dupriez V J, Burgeon E, Detheux M. (2002)], CHO-K1 cells engineered to stably co-express both recombinant human 5-HT2A and mitochondrial apoaequorin are used. […] For agonist testing, 50 microliters of cell suspension is mixed with 50 microliters of a solution containing test compound or reference agonist in a 96-well standard geometry microtiter plate. The resulting emission of light was recorded using a Hamamatsu Functional Drug Screening System 6000 (FDSS 6000) luminometer. For antagonist testing, 100 microliters of the solution of reference agonist (to yield an agonist concentration, EC80, sufficient to cause the cells to generate an 80% maximal luminescence response in the absence of any antagonist) is injected into the mix of cells and test compound, 15 minutes after the first injection. The resulting emission of light is recorded using Hamamatsu FDSS 6000 luminometer. IC50 values are calculated (from compound concentration dependent inhibition of agonist-induced 5-HT2A-dependent light emission) by non-linear least squares regression of the data (percent inhibition) onto equation (1) above.
# In method B [Jerman J C, Brough S J, Gager T, Wood M, Coldwell M C, Smart D, Middlemiss D N. (2001)], CHO-K1 cells which had been engineered to stably co-express recombinant human 5-HT2A are used in assay done similarly to method A. In method B, the cells are loaded with a fluorogenic Ca^2+ indicator dye by pre-incubation. Addition of the reference agonist serotonin causes a transient increase in fluorescence in a suspension of the loaded cells, which can be detected using the Molecular Devices fluorometric imaging plate reader (FLIPR), a high-throughput platform for 96-well cell-based assays. Addition of test compounds that are 5-HT2A antagonists, prior to the addition of the agonist (to yield an agonist concentration, EC80, sufficient to cause the cells to generate an 80% maximal fluorescence response in the absence of any antagonist), reduces the amount of fluorescence detected by the FLIPR upon agonist addition. IC50 values are calculated (from compound concentration dependent inhibition of agonist-induced 5-HT2A-dependent fluorescence) by non-linear least squares regression of the data (percent inhibition) onto equation (1) above.
# T1 sequence (P28223 whole entry): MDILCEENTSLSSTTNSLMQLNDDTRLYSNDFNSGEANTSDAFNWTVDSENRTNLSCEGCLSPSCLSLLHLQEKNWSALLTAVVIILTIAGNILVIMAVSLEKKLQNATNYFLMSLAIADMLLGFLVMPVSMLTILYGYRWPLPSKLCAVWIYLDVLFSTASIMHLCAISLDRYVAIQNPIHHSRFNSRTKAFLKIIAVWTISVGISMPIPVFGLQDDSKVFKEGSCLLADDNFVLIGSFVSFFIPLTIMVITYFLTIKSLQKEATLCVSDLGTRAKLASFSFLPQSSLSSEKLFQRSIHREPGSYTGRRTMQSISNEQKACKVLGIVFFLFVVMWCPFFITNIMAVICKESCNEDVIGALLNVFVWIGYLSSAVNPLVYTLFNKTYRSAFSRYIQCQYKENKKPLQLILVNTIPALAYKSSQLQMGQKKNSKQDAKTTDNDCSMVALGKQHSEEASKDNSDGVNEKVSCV
row,SMILES,IC50 [µM]
1,"OC(COC1CCCCC1)CN1CCC2(CC1)COc1ccccc12 (stereo not shown) [Example 389, 1-(cyclohexyloxy)-3-(2H-spiro[benzofuran-3,4′-piperidin]-1′-yl)propan-2-ol]",8.58
2,"O[C@H](COC1CCCCC1)CN1[C@@H]2CC[C@H]1CN(c1ccc(F)cc1)C2 [Example 289, (S)-1-(cyclohexyloxy)-3-((1R,5S)-3-(4-fluorophenyl)-3,8-diazabicyclo[3.2.1]octan-8-yl)propan-2-ol]",0.02

# Same assay, conditions: antagonist mode vs EC80 of reference agonist, method A or B, read-out: 5HT2A IC50
row,IC50 [µM],SMILES
1,0.01,"COc1ccccc1O[C@@H]1CCN(CCN2CCc3ccccc3C2=O)[C@@H]1C [Example 20, 2-(2-((2R,3R)-3-(2-methoxyphenoxy)-2-methylpyrrolidin-1-yl)ethyl)-3,4-dihydroisoquinolin-1(2H)-one]"
2,> 12.9,"O[C@H](COC1CCCCC1)CN1CCC[C@@H](Oc2ccc(F)cc2)C1 [Example 266, (S)-1-(cyclohexyloxy)-3-((R)-3-(4-fluorophenoxy)piperidin-1-yl)propan-2-ol]"
3,4.3,"COc1cccc(O[C@H]2CCN(CC(O)CO[C@H]3CCc4ccccc43)C2)c1 (stereo partly drawn) [Example 39, 1-(((S)-2,3-dihydro-1H-inden-1-yl)oxy)-3-((S)-3-(3-methoxyphenoxy)pyrrolidin-1-yl)propan-2-ol]"
4,10,"COc1ccc(O[C@H]2CCN(CCN3CCc4ccccc4C3=O)C2)cc1 [Example 28, (S)-2-(2-(3-(4-methoxyphenoxy)pyrrolidin-1-yl)ethyl)-3,4-dihydroisoquinolin-1(2H)-one]"
5,0.04,"c1ccc(CCN2CCC(Oc3ccccc3)CC2)cc1 [Example 214, 1-phenethyl-4-phenoxypiperidine]"
6,2.56,"COc1cccc(O[C@@H]2CCN(CCN3CCc4ccccc4C3=O)C2)c1 [Example 21, (R)-2-(2-(3-(3-methoxyphenoxy)pyrrolidin-1-yl)ethyl)-3,4-dihydroisoquinolin-1(2H)-one]"
7,2.76,"c1ccc2c(c1)CC1(CCN(CC3Cc4cccnc4C3)CC1)O2 (stereo not shown) [Example 397, 1′-((6,7-dihydro-5H-cyclopenta[b]pyridin-6-yl)methyl)-3H-spiro[benzofuran-2,4′-piperidine]]"
8,> 14.5,"c1ccc(CCN2C[C@@H]3C[C@H]2CN3c2ccccc2)cc1 [Example 305, (1S,4S)-2-phenethyl-5-phenyl-2,5-diazabicyclo[2.2.1]heptane]"
9,3.17,"COc1cccc(O[C@@H]2CCN(CC(O)CO[C@H]3CCc4ccccc43)C2)c1 (stereo partly drawn) [Example 38, 1-(((S)-2,3-dihydro-1H-inden-1-yl)oxy)-3-((R)-3-(3-methoxyphenoxy)pyrrolidin-1-yl)propan-2-ol]"
10,0.74,"COc1ccc2c(c1)C(CN1CCC(Oc3cccc(C(N)=O)c3)CC1)CC2 (stereo not shown) [Example 108, 3-((1-((6-methoxy-2,3-dihydro-1H-inden-1-yl)methyl)piperidin-4-yl)oxy)benzamide]"
11,2.8,"COc1ccc(O[C@@H]2CCN(CCN3CCc4ccccc4C3=O)C2)cc1 [Example 27, (R)-2-(2-(3-(4-methoxyphenoxy)pyrrolidin-1-yl)ethyl)-3,4-dihydroisoquinolin-1(2H)-one]"
12,0.29,"CC1(C)Oc2ccccc2C1CN1CCC(Oc2ccccc2F)CC1 (stereo not shown) [Example 133, 1-((2,2-dimethyl-2,3-dihydrobenzofuran-3-yl)methyl)-4-(2-fluorophenoxy)piperidine]"
13,0.36,"CC1(OCC(O)CN2CCN(c3ccccc3)CC2)COc2ccccc21 (stereo not shown) [Example 79, 1-((3-methyl-2,3-dihydrobenzofuran-3-yl)oxy)-3-(4-phenylpiperazin-1-yl)propan-2-ol]"
14,2.34,"COc1cccc(O[C@H]2CCN(CCN3CCc4ccccc4C3=O)C2)c1 [Example 22, (S)-2-(2-(3-(3-methoxyphenoxy)pyrrolidin-1-yl)ethyl)-3,4-dihydroisoquinolin-1(2H)-one]"
15,7.34,"OC(COC1CCCCC1)CN1CCC2(CCCN2c2ccccc2)C1 (stereo not shown) [Example 348, 1-(cyclohexyloxy)-3-(1-phenyl-1,7-diazaspiro[4.4]nonan-7-yl)propan-2-ol]"
16,3,"Fc1ccc(O[C@H]2CCN(CC3CCc4ccncc43)C2)cc1 (stereo partly drawn) [Example 6, 7-(((S)-3-(4-fluorophenoxy)pyrrolidin-1-yl)methyl)-6,7-dihydro-5H-cyclopenta[c]pyridine]"
17,2.08,"COc1ccccc1CN1CCC2(CCN(c3ccccc3)C2)C1 (stereo not shown) [Example 342, 2-(2-methoxybenzyl)-7-phenyl-2,7-diazaspiro[4.4]nonane]"
18,> 10,"COc1ccccc1OC1CCN(CC2(C)CCc3ccccc32)CC1 (stereo not shown) [Example 96, 4-(2-methoxyphenoxy)-1-((1-methyl-2,3-dihydro-1H-inden-1-yl)methyl)piperidine]"
19,1.93,"COc1ccccc1O[C@@H]1CCN(CCN2CCc3ccccc3C2=O)C1 [Example 13, (R)-2-(2-(3-(2-methoxyphenoxy)pyrrolidin-1-yl)ethyl)-3,4-dihydroisoquinolin-1(2H)-one]"
20,> 16.7,"c1ccc(CCN2C[C@@H]3C[C@H](C2)N(c2ccccc2)C3)cc1 [Example 330, (1S,5R)-3-phenethyl-6-phenyl-3,6-diazabicyclo[3.2.1]octane]"
21,0.3,"COc1ccccc1O[C@@H]1CCN(CC2Cc3cccnc3C2)[C@@H](C)C1 (stereo partly drawn) [Example 149, 6-(((2S,4R)-4-(2-methoxyphenoxy)-2-methylpiperidin-1-yl)methyl)-6,7-dihydro-5H-cyclopenta[b]pyridine]"
22,2.3,"Fc1ccc(O[C@@H]2CCN(CC3CCc4cnccc43)C2)cc1 (stereo partly drawn) [Example 1, 5-(((R)-3-(4-fluorophenoxy)pyrrolidin-1-yl)methyl)-6,7-dihydro-5H-cyclopenta[c]pyridine]"
23,> 13.1,"O=C1c2ccccc2CCN1CCN1CCC[C@H](Oc2ccc(F)cc2)C1 [Example 265, (S)-2-(2-(3-(4-fluorophenoxy)piperidin-1-yl)ethyl)-3,4-dihydroisoquinolin-1(2H)-one]"
24,> 16.7,"N#Cc1ccc(O[C@@H]2CCN(CCN3CCc4ccccc4C3=O)C2)cc1 [Example 31, (R)-4-((1-(2-(1-oxo-3,4-dihydroisoquinolin-2(1H)-yl)ethyl)pyrrolidin-3-yl)oxy) benzonitrile]"
25,0.76,"COc1cccc(OC2CCN(CC3Cc4cccnc4C3)CC2)c1 (stereo not shown) [Example 153, 6-((4-(3-methoxyphenoxy)piperidin-1-yl)methyl)-6,7-dihydro-5H-cyclopenta[b]pyridine]"

row,SMILES,IC50 [µM]
1,"COC(CCN1CCC(Oc2ccccc2)CC1)c1ccccc1 (stereo not shown) [Example 226, 1-(3-methoxy-3-phenylpropyl)-4-phenoxypiperidine]",0.02
2,"OC(CO[C@H]1CCCc2ccccc21)CN1CC[C@H](Oc2ccc(F)cc2)C1 (stereo partly drawn) [Example 49, 1-((S)-3-(4-fluorophenoxy)pyrrolidin-1-yl)-3-(((S)-1,2,3,4-tetrahydronaphthalen-1-yl)oxy)propan-2-ol]",2.55
3,"OC(CO[C@H]1CCc2ccccc21)CN1CC[C@@H](Oc2cccc(F)c2)C1 (stereo partly drawn) [Example 34, 1-(((S)-2,3-dihydro-1H-inden-1-yl)oxy)-3-((R)-3-(3-fluorophenoxy)pyrrolidin-1-yl)propan-2-ol]",4.66
4,"c1ccc(N2C[C@@H]3C[C@H]2CCN3CC2Cc3cccnc3C2)cc1 (stereo partly drawn) [Example 320, 6-(((1S,5R)-6-phenyl-2,6-diazabicyclo[3.2.1]octan-2-yl)methyl)-6,7-dihydro-5H-cyclopenta[b]pyridine]",> 10
5,"OC(CO[C@H]1CCc2ccccc21)CN1CC[C@H](Oc2ccc(F)cc2)C1 (stereo partly drawn) [Example 43, 1-(((S)-2,3-dihydro-1H-inden-1-yl)oxy)-3-((S)-3-(4-fluorophenoxy)pyrrolidin-1-yl)propan-2-ol]",2.08
6,"COc1ccccc1O[C@H]1CCN(CC2Cc3ccccc3C2)[C@@H](C)C1 [Example 143, (2S,4S)-1-((2,3-dihydro-1H-inden-2-yl)methyl)-4-(2-methoxyphenoxy)-2-methylpiperidine]",0.08
7,"COc1ccccc1O[C@@H]1CCN(CC2Cc3ccccc3C2)C[C@H]1C [Example 145, (3R,4R)-1-((2,3-dihydro-1H-inden-2-yl)methyl)-4-(2-methoxyphenoxy)-3-methylpiperidine]",0.01
